Measured values taken from patent US11602534B2, “Pyrimidine derivative kinase inhibitors” (HEFEI INSTITUTES OF PHYSICAL SCIENCE, CHINESE ACADEMY OF …, priority 2017, dated 2023).

Key:
P210-BaF3 = test: Proliferation of P210-BaF3 cells, CCK8 cell viability assay; assay type: cell-based; conditions: Mus musculus, 72 hours, stably expressing BCR-ABL mutant activated kinase
Summary of the method: (§1)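 Murine BaF3 cells made IL-3-independent by retroviral transduction of human kinase domains fused to N-terminal TEL or TPR fragments; parental BaF3 included. Living cells quantified by CCK8 (dehydrogenase activity) read-out, giving GI50 in μM.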

P210/T315I-BaF3 = test: Proliferation of P210/T315I-BaF3 cells, CCK8 cell viability assay; assay type: cell-based; conditions: Mus musculus, 72 hours, stably expressing BCR-ABL/T315I
Summary of the method: as §1

Tel-cKit-BaF3 = test: Proliferation of Tel-cKit-BaF3 cells, CCK8 cell viability assay; assay type: cell-based, mouse; conditions: Mus musculus; 72 hours, CCK8; stably expressing cKIT kinase
Summary of the method: (§2)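 Growth inhibition is expressed as GI50 in μM, with living-cell number estimated by reductive dehydrogenase activity in a CCK8 assay. The engineered BaF3 lines express TEL-fused human cKIT, PDGFRα or PDGFRβ and proliferate without IL-3 only through that kinase.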

FLT3-ITD-BaF3 = test: Proliferation of FLT3-ITD-BaF3 cells, CCK8 cell viability assay; assay type: cell-based; conditions: Mus musculus, 72 hours, stably expressing FLT3/ITD
Summary of the method: as §1

Tel-RET-BaF3 = test: Proliferation of Tel-RET-BaF3 cells, CCK8 cell viability assay; assay type: cell-based; conditions: Mus musculus, 72 hours, stably expressing RET kinase
TEL-PDGFRβ-BaF3 = test: Proliferation of TEL-PDGFRβ-BaF3 cells, CCK8 cell viability assay; assay type: cell-based; conditions: Mus musculus, 72 hours, stably expressing PDGFRβ kinase
Summary of the method: as §2

[1] = tested on: human acute myeloid leukemia cell strain MOLM-13; test: Proliferation of MOLM-13 cells, Cell Titer-Glo; assay type: cell-based; conditions: for GI50: Homo sapiens, MOLM-13, 72 hours, Cell Titer-Glo, FLT3/ITD and wild-type FLT3, read-out: GI50 MOLM13
Protocol: (§3) In addition, in this example the inhibitory activity of preferred compounds (Compound 5 and Compound 135) was tested against the following cell strains: human acute myeloid leukemia cell strain MV4-11 (expressing FLT3/ITD mutant gene), human acute myeloid leukemia cell strain MOLM-13 (expressing FLT3/ITD mutant gene and wild-type FLT3 gene), human acute myeloid leukemia cell strain MOLM-14 (expressing FLT3/ITD mutant gene and wild-type FLT3 gene), human acute myeloid leukemia cell strain OCI-AML-3 (expressing FLT3 A680V mutant gene), human chronic lymphatic leukemia cell strain MEC-1, Chinese hamster lung (CHL) cells, Chinese hamster ovary (CHO) cells, wherein all the cells were purchased from ATCC. In the example the compounds of the present invention were added respectively into the above cells at different concentrations (0.000508 μM, 0.00152 μM, 0.00457 μM, 0.0137 μM, 0.0411 μM, 0.123 μM, 0.370 μM, 1.11 μM, 3.33 μM, 10 μM in DMSO) and the cells were incubated for 72 hours. The number of viable cells was determined by quantification of ATP in living cells using Cell Titer-Glo® (Promega, the USA) Luminescent Cell Viability Assay kit and thereby GI50 was calculated.

[2] = tested on: human acute myeloid leukemia cell strain MV4-11; test: Proliferation of MV4-11 cells, Cell Titer-Glo; assay type: cell-based; conditions: for GI50: Homo sapiens, MV4-11, 72 hours, Cell Titer-Glo, FLT3/ITD
Protocol: as §3

[3] = tested on: human acute myeloid leukemia cell strain OCI-AML-3; test: Proliferation of OCI-AML-3 cells, Cell Titer-Glo; assay type: cell-based; conditions: 72 hours, FLT3 A680V
Protocol: as §3

Structure (SMILES) | GI50 (P210-BaF3) [nM] | GI50 (P210/T315I-BaF3) [nM] | GI50 (Tel-cKit-BaF3) [nM] | GI50 (FLT3-ITD-BaF3) [nM] | GI50 (Tel-RET-BaF3) [nM] | GI50 (TEL-PDGFRβ-BaF3) [nM] | GI50 [1] [nM] | GI50 [2] [nM] | GI50 [3] [nM] | inhibition of MOLM13 (in words) ([1]; summary of Table 3) | inhibition of MV4-11 (in words) ([2]; summary of Table 3)
CC(=O)Nc1cc(Oc2ccc(NC(=O)Cc3ccccc3C(F)(F)F)cc2)ncn1 [Example 135, N-[4-(6-acetylamino-pyrimidin-4-yloxy)-phenyl]-2-(2-trifluoromethyl-phenyl)-acetamide] | > 10000 | > 10000 | > 10000 | 32 | > 10000 | 40 | 466 | 284 | > 10000 |  | 
CC(=O)Nc1cc(Oc2ccc(NC(=O)Cc3ccc(F)cc3F)cc2)ncn1 [Example 5, N-[4-(6-acetylamino-pyrimidin-4-yloxy)-phenyl]-2-(2,4-difluoro-phenyl)-acetamide] | > 10000 |  | 5600 | 30 | > 10000 | 58 | 267 | 147 | > 10000 | selectively and strongly inhibited | selectively and strongly inhibited
